Experimental data from patent US6455589B1, “Primary N-hydroxylamines” (The Regents of the University of California, priority 1999, dated 2002).
“Also recorded” adds a separate entry of the source. Where two headings read alike, the source gives them in different places. One block for each compound: values may come before it.

Assays:
[1] = test system: IMR90 cells; assay: Replicative life span of IMR90 cells (gain in PDLs, delay of senescence); format: cell-based, human; conditions: for Toxicity to the cells: high concentrations (100 μM); for Gain in PDLs: continuous cultivation, compared to control untreated cells
Procedure: Cultivating IMR90 cells in culture—Normal human […] fibroblasts (IMR90) cells were obtained from the Coriell Institute for Medical Research at a population doubling level (PDL) of 10.85. The PDLs were calculated as log2(D/Do), where D and Do are defined as the density of cells at the time of harvesting and seeding, respectively. Stock cultures were grown in 100 mm Corning tissue culture dishes containing 10 ml of Dulbecco's modified Eagle's medium (DMEM) supplemented with 10% (V/V) fetal bovine serum (Hyclone). Stock cultures were split once a week when near confluence. Cells were harvested by trypsinization for 5 min at 37° C., immediately collected in 5 ml complete DMEM, washed once with 5 ml complete DMEM and incubated for 10-15 min at 37° C. to allow the cells to recover.
To test the effect of hydroxylamines on replicative life span, IMR90 cells were seeded at 0.5×106 per 100 mm dish. N-hydroxylamines (N-t-butyl hydroxylamine, N-benzyl hydroxylamine, N-methyl hydroxyl- amine) were added either individually (final concentration 10 or 100 μM) or in a combination of all three N-hydroxylamines (30 μM each). The cultures were split after 7 days and seeded with fresh medium supplemented with the hydroxylamines described above. In other experiments the medium of the cultures was replaced after 3 days of seeding with fresh medium and with fresh N-hydroxylamines, the split was done as usual after 7 days from seeding. The effect of PBN on life span was tested as in (5).

[2] = molecular target: T1, Aβ(1-40) (Homo sapiens, UniProt P05067); assay: Inhibition of Aβ(1-40) beta-pleated sheet formation (Thioflavin T fluorescence); format: biochemical; conditions: compound 10 μM, 12 hours
T1 construct: particularly the aggregated fibrils of synthetic Aβ(1-40)
Text: The deposition of amyloid β-peptide (Aβ) is associated with the development of Alzheimer's disease. See, for example, G. G. Glenner et al. (1984) Biochem. Biophys. Res. Commun., 120:885-890; and R. E. Tanzi (1989) Ann. Med., 21:91-94. Accordingly, compounds which effectively disrupt the formation of Aβ(1-40) or Aβ(1-42) beta-pleated sheets are potentially useful for preventing and/or reversing such amyloid deposits. Thioflavin T (ThT) is known to rapidly associate with beta-pleated sheets, particularly the aggregated fibrils of synthetic Aβ(1-40). This association gives rise to a new excitation maximum at 440 nm and to enhanced emission at 490 nm.
The experiments are performed using a CytoFluor II fluorescence plate reader having the following parameters: Filters (Excitation and Emission)=440 nm/20 and 490 nm/40; Gain=75; Cycle to Cycle Time=30 min; Run Time=720 min (24 cycles) or dependent on exp. design; Plate=96 well. […] The fluorescence measurement begins when the Aβ(1-40) is added and continues for a total of 12 hours. The percent inhibition of beta-pleated sheet formation is calculated from the relative fluorescence unit difference between aggregation in the presence and in the absence of the test compounds.

[3] = test system: IMR90 cells; assay: Replicative life span of IMR90 cells (gain in PDLs, delay of senescence); format: cell-based, human; conditions: 25 μM
[4] = test system: IMR90 cells; assay: H2O2-induced senescence of IMR90 cells; format: cell-based, human; conditions: 20 μM or 30 μM H2O2 once a week, cells continuously treated
Procedure: To determine the effect of H2O2 on the replicative life span, cells were first seeded with fresh medium with or without N-hydroxylamines (see above) for a week. Next, cells grown with or without N-hydroxylamines were each split into two additional groups and then either; 1) treated with 20 or 30 μM H2O2 or 2) without treatment with H2O2.

[5] = test system: IMR90 cells; assay: Steady state level of oxidants in IMR90 cells, DCFH oxidation by FACS; format: cell-based, human; conditions: for DCFH, AFU/PDL (rate of DCFH oxidation per PDL): 100 μM, linear regression 26-50 PDLs; for Percent of decrease in the rate of oxidants formation from control: DCFH oxidation, continuous treatment
Procedure: (§1) Analysis of the age-dependent changes in the steady state level of oxidants and mitochondrial membrane potential in IMR90 cells by FACS—[…] were trypsinized and resuspended into complete DMEM. For each condition, two tubes were prepared with 1×10^6 cells each. Tubes were then spun at 250 g for 10 min at room temperature and supernatant was replaced with 1 ml of Hanks Balanced Salt Solution (HBSS) without Ca^++ or Mg^++. Rho123 (20 μl of 525 μM stock; 10.5 μM final concentration) was added to one tube and DCFH (20 μl of 1.25 mM stock; 25 μM final concentration) was added to the other tube. The cells were then incubated in the dark in a water bath at 37° C. for 30 min followed by cell resuspension and centrifugation at 250 g for 10 min at room temperature. The supernatant (500 μl) was removed from each tube and the cells were resuspended in the remaining 500 μl before FACS analysis on a FACSort analyzer (Becton Dickinson, San Jose, Calif.). Cell Quest was used for data acquisition and analysis. The data is reported as the mean of the channel of the fluorescence histogram obtained. Fluorescence output was calibrated with LinearFlow Green Flow cytometry Intensity Calibration Particles (Molecular Probes, Eugene, Oreg.).

[6] = test system: IMR90 cells; assay: Senescence-dependent change in mitochondria of IMR90 cells, Rho123 accumulation by FACS; format: cell-based, human; conditions: for Rho123, AFU/PDL (rate of Rho123 accumulation per PDL): 100 μM, linear regression 26-50 PDLs; for Decrease of the rate of Rho123 accumulation as a function of senescence: vs control
Procedure: as §1

[7] = test system: cytochrome c; assay: Auto-oxidation of cyt c^II and direct reduction of cytochrome c by N-hydroxylamines; format: biochemical
Procedure: In order to test the effect of N-hydroxylamines on the spontaneous oxidation of cytochrome c, a complete reduction of cyt c^III was achieved by incubating the X/XO system for 4-5 min at 25° C. Auto-oxidation of cyt c^II is associated with a decrease in absorbance at 550 nm. Reduced cytochrome c was incubated at 25° C. with or without 2 or 3 mM N-hydroxylamines and the auto-oxidation was followed by spectrophotometer. The rate of reduction of cytochrome c by different concentrations of each N-hydroxylamine was measured by the increase in absorbance at 550 nm.

[8] = test system: IMR90 cells; assay: Cellular levels of GSH and GSSG in IMR90 cells (HPLC-EC); format: cell-based, human; conditions: for GSH / GSH/GSSG / GSSG: 100 μM, 26-50 PDLs; for Increase of the GSH/GSSG ratio: vs control
Procedure: Measurement of cellular levels of GSH and GSSG in IMR90 cells—Cultivated IMR90 cells (≈3×10^6) were washed once in cold PBS and resuspended in 200 μl of ice cold MSA (0.2M MSA/0.5mM diethylenetriamine pentaacetic acid, DTPA) and allowed to stand for 10 min at room temperature. Denatured proteins were removed by centrifugation and the supernatant was filtered with 30,000 D MW cut-off Ultrafree filters (Millipore) before injection. Fifty microliters were injected and separated on an HPLC column (3-μm 0.46×15cm Suplecosil LC18-DB, Supelco, Bellefonte, Pa.) with a flow rate of 1 ml/min using a mobile phase consisting of 25mM NaH2PO4, 5 mM octane sulfonic acid, and 2% acetonitrile, adjusted to pH 2.7 with phosphoric acid (26). An ESA model 5100A Coulochem detector, 5020 guard cell and model 5010 analytical cell combination was used for analysis. Oxidation potentials of 900 mV, 400 mV and 880 mV were used for guard cell, electrode 1 and 2, respectively. Full-scale output was 10 μA and peak areas were compared using commercial GSH and GSSG as standards.

[9] = test system: IMR90 cells; assay: Entry and concentration of N-t-butyl hydroxylamine in cells; format: in vitro ADME, human
[10] = Auto-oxidation in a cell free system; format: physicochemical
[11] = mice; cited from earlier work
[12] = in vivo; conditions: male, C57BL/6J and DBA/2J, mouse, in vivo
Procedure: C57BL/6J and DBA/2J male mice (35-40 g) are tested for the acute lethal effects of adriamycin and the prevention of acute lethality by pretreatment doses of subject hydroxylamines. Mice are injected i.p with either saline or subject hydroxylamines 30 minutes prior to administration of adriamycin.

T1 sequence (P05067 672-711 limits assumed): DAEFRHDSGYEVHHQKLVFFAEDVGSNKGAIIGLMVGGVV

Compound: NOCc1ccccc1 [O-benzyl hydroxylamine]
Delay of senescence of IMR90 cells (in words) [1]: accelerate senescence

Inhibition of Aβ(1-40) beta-pleated sheet formation [2]: inhibit
Compound: ONC1CCCCC1 [Example 3, N-Cyclohexylhydroxylamine]

Compound: CC1(C)CCCC(C)(C)N1[O] [TEMPO, 2,2,6,6-tetramethyl-piperidine-1-oxyl]
Delay of senescence of IMR90 cells (in words) [1]: none
Toxicity to the cells [1]: toxic
Delay of replicative senescence [3]: did not delay the replicative senescence

Concentration in the cells [9]: approximately 5 fold
Entry into the cells [9]: rapidly enters the cells
Stability to auto-oxidation [10]: stable to auto-oxidation
Compound: CC(C)(C)NO [NtBHA, N-t-butyl hydroxylamine]
Delay of senescence of IMR90 cells (in words) [1]: delays senescence
Gain in PDLs ([1]; 10 μM): 5.8 PDLs
Gain in PDLs ([1]; 100 μM (added once per 7 days)): 19.7 PDLs
Concentration required to delay senescence (gain in PDLs), relative to PBN ([1]; vs PBN 200 μM): 20 times lower
H2O2-induced senescence [4]: attenuated
DCFH, AFU/PDL (rate of DCFH oxidation per PDL) [5]: 0.27 (0.32) AFU/PDL
Percent of decrease in the rate of oxidants formation from control [5]: 88%
Rho123, AFU/PDL (rate of Rho123 accumulation per PDL) [6]: 9.3 (0.85) AFU/PDL
Decrease of the rate of Rho123 accumulation as a function of senescence [6]: 70%
Direct reduction of cyt c^III to cyt c^II [7]: somewhat less efficient
GSH [8]: 49.5 ± 5.6
GSH/GSSG [8]: 123.8
GSSG [8]: 0.4 ± 0.045
Increase of the GSH/GSSG ratio [8]: 75%

Compound: CC(C)(C)ON [O-t-butyl hydroxylamine]
Delay of senescence of IMR90 cells (in words) [1]: accelerate senescence

Compound: CC(C)NO [Example 1, N-Isopropylhydroxylamine]
Inhibition of Aβ(1-40) beta-pleated sheet formation [2]: inhibit

Compound: NO [HNHOH, hydroxylamine]
Anticancer activity [11]: possesses anticancer activity
Senescence [11]: delayed senescence

Compound: vitamin E
Delay of senescence of IMR90 cells (in words) [1]: none

Compound: catalase
Delay of senescence of IMR90 cells (in words) [1]: none

Compound: CON [O-methyl hydroxylamine]
Delay of senescence of IMR90 cells (in words) [1]: accelerate senescence

Compound: CNO [NMHA, N-methyl hydroxylamine]
Delay of senescence of IMR90 cells (in words) [1]: active; also recorded: able to delay the senescence
DCFH, AFU/PDL (rate of DCFH oxidation per PDL) [5]: 0.45 (0.3) AFU/PDL
Percent of decrease in the rate of oxidants formation from control [5]: 79%
Rho123, AFU/PDL (rate of Rho123 accumulation per PDL) [6]: 15.3 (0.86) AFU/PDL
Decrease of the rate of Rho123 accumulation as a function of senescence [6]: 52%
GSH [8]: 52.15 ± 6.7
GSH/GSSG [8]: 137.2
GSSG [8]: 0.38 ± 0.08
Increase of the GSH/GSSG ratio [8]: 94%

Compound: CC1(C)CC(O)CC(C)(C)N1[O] [Example 4-OH-TEMPO, 4-hydroxy-2,2,6,6-tetramethylpiperidine-1-oxyl]
Delay of senescence of IMR90 cells (in words) [1]: none
Toxicity to the cells [1]: toxic
Delay of replicative senescence [3]: did not delay the replicative senescence

Compound: O=C1O[C@H]([C@@H](O)CO)C(O)=C1O [ascorbic acid]
Delay of senescence of IMR90 cells (in words) [1]: none

Compound: COc1cccc2c1C(=O)c1c(O)c3c(c(O)c1C2=O)C[C@@](O)(C(=O)CO)C[C@@H]3O[C@H]1C[C@H](N)[C@H](O)[C@H](C)O1 [adriamycin]
Acute lethality (dose range) [12]: 10 to 30 mg/kg
LD50 [12]: 25 mg/kg

Compound: CC(C)(C)N=O [tNB, nitroso-tert-butane]
Effect on IMR90 cells ([1]; 10 μM in medium): no effect

Compound: O=Cc1ccccc1 [benzaldehyde]
Delay of senescence of IMR90 cells (in words) [1]: without effect or toxic at high concentrations
Delay of senescence of IMR90 cells (in words) ([1]; listed as Benzaldehyde): without effect and in high concentrations was toxic

Compound: ONCc1ccccc1 [NBHA, N-benzyl hydroxylamine]
Delay of senescence of IMR90 cells (in words) [1]: active; also recorded: able to delay the senescence
H2O2-induced senescence [4]: attenuated
DCFH, AFU/PDL (rate of DCFH oxidation per PDL) [5]: 0.11 (0.08) AFU/PDL
Percent of decrease in the rate of oxidants formation from control [5]: 95%
Rho123, AFU/PDL (rate of Rho123 accumulation per PDL) [6]: 9.7 (0.86) AFU/PDL
Decrease of the rate of Rho123 accumulation as a function of senescence [6]: 69%
GSH [8]: 48.4 ± 3.4
GSH/GSSG [8]: 134.4
GSSG [8]: 0.36 ± 0.015
Increase of the GSH/GSSG ratio [8]: 90.4%
